Read-outs that look alike come from different tables or passages of the source. Marks after values point to notes of the source that are not given here. One block for each compound: values may come before it.
How the values were obtained:
[1] = cited from earlier work; for pGa: [L] = 10 μM, [M] = 1 μM, pH = 7.4
[2] = cited from earlier work
[3] = cited from earlier work; remark: listed apart in the source
[4] = Complex formation equilibria with Cu(II) (potentiometric–spectrophotometric and in-batch acidic UV titrations); assay type: physicochemical; settings: literature chelators, no reference given for the value; [L] = 10 μM, [M] = 1 μM, pH = 7.4
Experimental: Protonation constants and metal stability constants were determined through a multitechnique approach. Combined potentiometric–spectrophotometric titrations were carried out using a Metrohm Titrando 809 equipped with a Ross combined electrode and a Metrohm Dosino 800. The glass cell containing the solutions to be titrated was maintained at a constant temperature, 25 °C, and connected with an inlet–outlet tube for nitrogen gas (purified through a 10% NaOH solution) to exclude CO2 prior to and during the titration. Daily electrode calibrations were carried out at proton ion concentration, and the results were analyzed with the Gran[41] procedure to obtain the standard potential (E°) and the ionic product of water pKw at T = 25 °C and I = 0.16 M NaCl. […] The exact amount of acid present was determined by the titration of equimolar solutions of either Cu(II) or Ga(III) and Na2H2EDTA using Gran plotting.[41]
Complex formation equilibria of either Ga(III) or Cu(II) with H2L^1 were studied using two different methods. […] The pH in the most acidic samples was calculated from the H^+ concentration when the pH was below the electrode threshold. From very acidic pH, both Cu(II) and Ga(III) complexes formed, and the first protonated complex species ([Cu(H3L^1)]^3+ and [Ga(H2L^1)]^3+) were determined through the fitting of these experiments with the HypSpec2014 program[42] […]

[5] = Complex formation equilibria with Ga(III) (potentiometric–spectrophotometric and in-batch acidic UV titrations); assay type: physicochemical; settings: for pGa, corrected value: from corrected log KML, [L] = 10 μM, [M] = 1 μM, pH = 7.4; for log KML (M = Ga^3+), corrected value: refit of potentiometric curve in competition with [Ga(OH)4]−, I = 0.15 M NaCl, 25 °C (Supporting Information)
Experimental: Protonation constants and metal stability constants were determined through a multitechnique approach. Combined potentiometric–spectrophotometric titrations were carried out using a Metrohm Titrando 809 equipped with a Ross combined electrode and a Metrohm Dosino 800. The glass cell containing the solutions to be titrated was maintained at a constant temperature, 25 °C, and connected with an inlet–outlet tube for nitrogen gas (purified through a 10% NaOH solution) to exclude CO2 prior to and during the titration. […] The calibrations involved HCl standard being titrated with carbonate-free titrant NaOH(aq) (0.15 M), and the ionic strength was maintained constant to 0.16 M by the addition of a NaCl solution. The NaOH was previously standardized against freshly dried potassium hydrogen phthalate crystals. Copper and gallium metal-ion solutions used in metal complexation experiments were prepared by the dilution of AA standards. The exact amount of acid present was determined by the titration of equimolar solutions of either Cu(II) or Ga(III) and Na2H2EDTA using Gran plotting.[41]
Complex formation equilibria of either Ga(III) or Cu(II) with H2L^1 were studied using two different methods. […] The pH in the most acidic samples was calculated from the H^+ concentration when the pH was below the electrode threshold. From very acidic pH, both Cu(II) and Ga(III) complexes formed, and the first protonated complex species ([Cu(H3L^1)]^3+ and [Ga(H2L^1)]^3+) were determined through the fitting of these experiments with the HypSpec2014 program[42] (Figures S50–S52 and S56–S58 and Table S3). […] Dissociation constants corresponding to the hydrolysis of Ga(III) and Cu(II) aqueous ions included in the calculations were taken from Baes and Mesmer.[46] Complexation of H2L^1 with Ga(III) was further corroborated by the findings of ^1H NMR experiments at different pD values (Figures 3 and S26). Similarly, complexation of H2L^2 with Cu(II) or Ga(III) was studied by in-batch acidic UV experiments in a set of solutions prepared with the experimental conditions [H2L^2] = [Ga^3+] = 1 × 10^–4 M; [H2L^2] = [Cu^2+] = 7 × 10^–4 M, and the pH was adjusted by the addition of different amounts of standardized HCl. The ionic strength was maintained constant at 0.16 M when possible by the addition of NaCl. The first-formed complex species ([Cu(HL^2)]^+, [CuL^2], and [GaL^2]^+) were determined through fitting of the experimental data (Figures S53–S55 and S59–S61 and Table S3). […]

[6] = Protonation constants by combined potentiometric–spectrophotometric, in-batch acidic UV and 1H NMR titrations; assay type: physicochemical; settings: 25 °C, I = 0.16 M NaCl
Experimental: Protonation constants and metal stability constants were determined through a multitechnique approach. Combined potentiometric–spectrophotometric titrations were carried out using a Metrohm Titrando 809 equipped with a Ross combined electrode and a Metrohm Dosino 800. The glass cell containing the solutions to be titrated was maintained at a constant temperature, 25 °C, and connected with an inlet–outlet tube for nitrogen gas (purified through a 10% NaOH solution) to exclude CO2 prior to and during the titration. Daily electrode calibrations were carried out at proton ion concentration, and the results were analyzed with the Gran[41] procedure to obtain the standard potential (E°) and the ionic product of water pKw at T = 25 °C and I = 0.16 M NaCl. The calibrations involved HCl standard being titrated with carbonate-free titrant NaOH(aq) (0.15 M), and the ionic strength was maintained constant to 0.16 M by the addition of a NaCl solution. The NaOH was previously standardized against freshly dried potassium hydrogen phthalate crystals. Copper and gallium metal-ion solutions used in metal complexation experiments were prepared by the dilution of AA standards. The exact amount of acid present was determined by the titration of equimolar solutions of either Cu(II) or Ga(III) and Na2H2EDTA using Gran plotting.[41]
Protonation equilibria of either H2L^1 or H2L^2 were studied by titrations of solutions containing [H2L^1] = 9.56 × 10^–4 M or [H2L^2] = 5.87 × 10^–4 M at 25 °C and 0.16 M NaCl ionic strength using a potentiometric–spectrophotometric procedure. In each titration (100–150 equilibrium points and pH range 2–11), the electromotive force values were recorded after 2 min of each NaOH addition and the spectrophotometer was synchronized to obtain a UV spectrum for each pH data point. Spectra were recorded in the 200–400 nm wavelength range with a 0.2-cm-path-length optic dip probe connected to a Varian Cary 60 UV–vis spectrophotometer. The obtained spectrophotometric and potentiometric data were analyzed with HypSpec2014([42]) and HyperQuad2013([43]) to obtain the protonation constants and molar absorptivities of the different absorbing species of the ligands (Table 3 and Figures S42–S49 and S51B). […] Additional ^1H NMR titrations were carried out for H2L^1 to better understand the protonation sequence and their assignments (Figures S45 and S46). A set of H2L^1 solutions (4 × 10^–3 M) in D2O were prepared by the addition of DCl or NaOD, and their ^1H NMR spectra were recorded. The pH values of the samples were then measured with a microelectrode (Mettler Toledo), which was calibrated daily at H^+ concentration as described above. The pH was corrected for the deuterium isotopic effect (pD = pHreading + 0.4).[44]

[7] = Table S4 footnote e, ref 7 (SI)
[8] = Table S4 footnote c, ref 5 (SI)
[9] = Table S4 footnote d, ref 6 (SI)
[10] = Table S4 footnote f, ref 8 (SI)

Compound: O=C(O)c1cccc(CNCCNCc2cccc(C(=O)O)n2)n1 [H2dedpa, 1,2-bis[[(6-carboxypyridin-2-yl)methyl]amino]ethane]
pGa, corrected value [5]: 22.2 ^e | log KML (M = Ga^3+), corrected value [5]: 22.9(1) ^e | log KML (M = Cu^2+) [2]: 19.16(5) ^d | pCu ([2]; −log [Mfree] at [L] = 10 μM, [M] = 1 μM, pH = 7.4): 18.5 ^d | log KHqL, H2L + H+ ⇆ H3L [3, 8]: 3.04 | log KHqL, H3L + H+ ⇆ H4L [3, 8]: 2.59 | log KHqL, HL + H+ ⇆ H2L [3, 8]: 6.31 | log KHqL, L + H+ ⇆ HL [3, 8]: 9.00 | log KHqL, H2L + H+ ⇆ H3L [3, 9]: 3.08 (2) | log KHqL, H3L + H+ ⇆ H4L [3, 9]: 2.33 (3) | log KHqL, HL + H+ ⇆ H2L [3, 9]: 6.18 (2) | log KHqL, L + H+ ⇆ HL [3, 9]: 8.69 (1)

Compound: O=C([O-])CN1CCN(CC(=O)[O-])CCN(CC(=O)[O-])CCN(CC(=O)[O-])CC1.[Ga+3] [Ga^III-DOTA]
pGa [1]: 18.5 | log KML (M = Ga^3+) [1]: 21.33

Compound: N,N′-Bis(3-aminopropyl)-N,N′-bis(6-carboxypyridin-2-yl)-1,2-diaminoethane [H2L^1]
log KHqL, H2L + H+ ⇆ H3L (log K3) [6]: 6.78 | log KHqL, H3L + H+ ⇆ H4L (log K4) [6]: 4.23 | log KHqL, H4L + H+ ⇆ H5L (log K5) [6]: 2.79 | log KHqL, H5L + H+ ⇆ H6L (log K6) [6]: 2.01 | log KHqL, HL + H+ ⇆ H2L (log K2) [6]: 9.91 | log KHqL, L + H+ ⇆ HL (log K1) [6]: 10.86

Second part, led by results:

pCu [4]: 19.2
Compound: O=C(O)CN1CCN(CC(=O)O)CCN(CC(=O)O)CC1 [NOTA, 1,4,7-triazacyclononane-1,4,7-triacetic acid]
pGa [1]: 27.9 ^g | log KML (M = Ga^3+) [1]: 30.98 ^g | log KML (M = Cu^2+) [2]: 21.6 ^d | log KHqL, H2L + H+ ⇆ H3L [3, 7]: 3.163(3) | log KHqL, H3L + H+ ⇆ H4L [3, 7]: 1.955(3) | log KHqL, HL + H+ ⇆ H2L [3, 7]: 6.032(4) | log KHqL, L + H+ ⇆ HL [3, 7]: 10.773(7) | ∑log KHqL [3, 7]: 21.923

pGa, corrected value [5]: 22.2 | log KML (M = Ga^3+), corrected value [5]: 22.9(1)
Compound: O=C([O-])c1cccc(CNCCNCc2cccc(C(=O)[O-])n2)n1.[Ga+3] [[Ga(dedpa)]^+]
log KML (M = Ga^3+) [1]: 28.11(8)

pCu [4]: 16.2
Compound: O=C(O)CN1CCN(CC(=O)O)CCN(CC(=O)O)CCN(CC(=O)O)CC1 [DOTA, 1,4,7,10-tetraazacyclododecane-1,4,7,10-tetraacetic acid]
log KML (M = Ga^3+) [1]: 21.33 ^g | log KML (M = Cu^2+) [2]: 22.21(1) ^f | log KHqL, H2L + H+ ⇆ H3L [3, 10]: 4.548 (3) | log KHqL, H3L + H+ ⇆ H4L [3, 10]: 4.130 (3) | log KHqL, HL + H+ ⇆ H2L [3, 10]: 9.680 (1) | log KHqL, L + H+ ⇆ HL [3, 10]: 12.09 (4) | ∑log KHqL [3, 10]: 30.448

— paper PMC10731644, “Toward ^68Ga and ^64Cu Positron Emission Tomography Probes: Is H2dedpa-N,N′-pram the Missing Link for dedpa Conjugation?” (Inorganic Chemistry, 2023)
